Assay results published in article PMC11501026, “L-Arginine and asymmetric dimethylarginine (ADMA) transport across the mouse blood-brain and blood-CSF barriers: Evidence of saturable transport at both interfaces and CNS to blood efflux” (PLOS ONE, 2024).
Several values for one entry are separate records, joined by “and”; a condition that tells them apart may be missing. Equal entries are not always repeated.

Tests used:
[1] = cross-inhibition, in situ perfusion: [^3H]-arginine with 0.5–500 μM unlabelled ADMA; assay type: in vivo, mouse; details: male, mouse, 10 mins, Balb/c ♂, 5ml/min
Protocol: (§1) Self-inhibition experiments were also performed. […] Cross-competition experiments were also performed.
(§2) The percentage change in the RTissue uptake values achieved in the absence or presence of an unlabelled inhibitor can be calculated by means of Eq 4.
(§3) %change=RTissue−RInhibition/RTissue×100 Eq 4
(§4) We define RInhibition as the RTissue uptake in the presence of an inhibitor in the artificial plasma.
(§5) A decrease in the uptake of radiolabelled solute in the presence of unlabelled inhibitor is indicative of a saturable influx transport system. Conversely, an increase in the uptake of radiolabelled solute in the presence of unlabelled inhibitor is indicative of a saturable efflux transport system.
Concentrations of ADMA were specifically selected to mimic plasma concentrations under normal conditions (0.5 μM), pathophysiological conditions (3.0 μM), and then supraphysiological concentrations (10, 100 and 500 μM).

[2] = tested on: [^3H]-arginine transport across the blood-brain and blood-CSF barriers; assay: self-inhibition, in situ perfusion: [^3H]-arginine with 100 μM unlabelled L-arginine; assay type: in vivo, mouse; details: +100uM Un-labelled arginine, 10 mins, Balb/c ♂, 5ml/min; single mouse
Protocol: as §1, §2, §3, §4, §5

[3] = in situ brain/choroid plexus perfusion: CNS uptake of [^3H]-arginine, [^3H]-ADMA and [^14C]-sucrose (multiple-time and single-time uptake analysis); details: for Kp at 30 min / Kp at 20 min: male, BALB/c, mouse, in vivo; for Kp at 20 min: tissue or CSF to plasma ratio (mean), uncorrected, given as fraction
Protocol: All animals used in procedures were adult male BALB/c mice (between 23 g and 25 g) sourced from Harlan Laboratories, Oxon, UK, unless otherwise stated.
Animals were weighed immediately before the administration of the anaesthetic to ensure correct dosage. Domitor® (medetomidine hydrochloride) and Vetalar® (ketamine) were both purchased from Harlan Laboratories (Cambridge, UK). All animals were terminally anaesthetised (2 mg/kg Domitor® and 150 mg/kg Vetalar® injected intraperitoneally), and a lack of self-righting and paw-withdrawal reflexes (as surrogate indicators of consciousness) thoroughly checked prior to and during all procedures. If needed, additional anaesthetic was administered via the same route. […] At the end of the in situ brain perfusion procedure the animal was killed by decapitated under non-recovery anaesthesia. Animals were heparinised with 100 units heparin (in 0.9% m/v NaCl(aq), Harlan Laboratories; Oxon, UK), administered via the intraperitoneal route prior to surgery.
The in situ brain/choroid plexus perfusion method is designed to directly perfuse the brain with artificial plasma via a cannula placed in the heart. Artificial plasma is prepared to mimic the ionic composition of blood, and transporter inhibitors can be added in known concentrations and delivered to the brain for defined periods of time.
The left ventricle of the heart was cannulated with a 25G x 10 mm butterfly-winged needle connected to the perfusion circuit. […] The right atrium of the heart was sectioned to allow outflow of the artificial plasma. […] Radiolabelled and unlabelled test molecules were infused into the inflowing artificial plasma for periods up to 30 minutes.
At the set perfusion time a CSF sample was taken by inserting a pulled glass micropipette connected to silicon tubing and a syringe into the cisterna magna. Gentle suction was applied, and CSF was withdrawn. Only clear CSF samples were processed and taken for analysis. Samples contaminated with blood were discarded. The animal was then decapitated and the brain removed. Specific brain samples including the circumventricular organs (CVOs) were taken using a Leica S4E L2 stereomicroscope (Leica; Buckinghamshire, UK). The brain samples included the frontal cortex, caudate nucleus, occipital cortex, hippocampus, hypothalamus, thalamus, pons and cerebellum. The CVOs included the choroid plexus, pituitary gland and pineal gland.
All samples (brain regions, capillary depletion brain homogenate, pellet and supernatant, CVOs, CSF and plasma samples) were solubilised in 0.5 mL tissue solubiliser (Solvable; Perkin-Elmer; Boston, MA, USA). After incubating the samples at room temperature for 48 h, 4 mL scintillation fluid (Lumasafe®; Perkin-Elmer; Boston, MA, USA) was added to each before vigorous vortexing.

Structure (SMILES): OC[C@H]1O[C@@](CO)(O[C@H]2O[C@H](CO)[C@@H](O)[C@H](O)[C@H]2O)[C@@H](O)[C@@H]1O [[^14C]-sucrose, reference compound]
- Kp at 10 min ([1]; BALB/c, other: in situ brain perfusion with artificial plasma, with unlabelled ADMA 500 µM, [3H] Arginine and [14C] Sucrose uptake, pellet, + 500µM un-labelled ADMA, mean): 0.00271
- Kp at 10 min ([1]; BALB/c, thalamus, other: in situ brain perfusion with artificial plasma, with unlabelled ADMA 500 µM, [3H] Arginine and [14C] Sucrose uptake, thalamus, + 500µM un-labelled ADMA, mean): 0.034
- Kp at 10 min ([1]; Balb/c, CSF, other: in situ brain perfusion, with unlabelled ADMA 100 µM, Arginine / Sucrose uptake, CSF, mean, [3H] Arginine + [14C] Sucrose + 100µM un-labelled ADMA, mean): 0.149
- Kp at 10 min ([1]; Balb/c, caudate nucleus, other: in situ brain perfusion, with unlabelled ADMA 10 µM, Arginine / Sucrose uptake, caudate nucleus, mean, [3H] Arginine + [14C] Sucrose + 10 uM ADMA, mean): 0.0357
- Kp at 10 min ([1]; Balb/c, cerebellum, other: in situ brain perfusion, with unlabelled ADMA 0.5 µM, cerebellum: [14C] Sucrose, + 0.5 uM ADMA, mean): 0.0327
- Kp at 10 min ([1]; Balb/c, choroid plexus, other: in situ brain perfusion, with 0.5 µM unlabelled ADMA, choroid plexus: [14C] Sucrose, + 0.5 uM ADMA, mean): 0.162
- Kp at 10 min ([1]; Balb/c, frontal cortex, other: in situ brain perfusion, with unlabelled ADMA 3 µM, Arginine / Sucrose uptake, frontal cortex, [3H] Arginine + [14C] Sucrose + 3 uM ADMA, single mice): 0.0326
- Kp at 10 min ([1]; Balb/c, hypothalamus, other: in situ brain perfusion, with unlabelled ADMA 3 µM, Arginine / Sucrose uptake, hypothalamus, mean, [3H] Arginine + [14C] Sucrose + 3 uM ADMA, mean): 0.0456
- Kp at 10 min ([1]; Balb/c, hypothalamus, other: in situ brain perfusion, with unlabelled ADMA 10 µM, Arginine / Sucrose uptake, hypothalamus, mean, [3H] Arginine + [14C] Sucrose + 10 uM ADMA, mean): 0.074
- Kp at 10 min ([1]; Balb/c, hypothalamus, other: in situ brain perfusion, with unlabelled ADMA 100 µM, Arginine / Sucrose uptake, hypothalamus, mean, [3H] Arginine + [14C] Sucrose + 100µM un-labelled ADMA, mean): 0.0349
- Kp at 10 min ([1]; Balb/c, pellet (cerebral capillary endothelial cells), other: in situ brain perfusion, with unlabelled ADMA 0.5 µM, pellet: [14C] Sucrose, + 0.5 uM ADMA, mean): 0.00977
- Kp at 10 min ([1]; Balb/c, pineal gland, other: in situ brain perfusion, with unlabelled ADMA 10 µM, Arginine / Sucrose uptake, pineal gland, mean, [3H] Arginine + [14C] Sucrose + 10 uM ADMA, mean): 0.504
- Kp at 10 min ([1]; Balb/c, pituitary gland, other: in situ brain perfusion, with 0.5 µM unlabelled ADMA, pituitary gland: [14C] Sucrose, + 0.5 uM ADMA, mean): 0.13
- Kp at 10 min ([1]; Balb/c, pituitary gland, other: in situ brain perfusion, with unlabelled ADMA 3 µM, Arginine / Sucrose uptake, pituitary gland, mean, [3H] Arginine + [14C] Sucrose + 3 uM ADMA, mean): 0.146
- Kp at 10 min ([1]; Balb/c, pons, other: in situ brain perfusion, with unlabelled ADMA 0.5 µM, pons: [14C] Sucrose, + 0.5 uM ADMA, mean): 0.0597
- Kp at 10 min ([1]; Balb/c, pons, other: in situ brain perfusion, with unlabelled ADMA 3 µM, Arginine / Sucrose uptake, pons, mean, [3H] Arginine + [14C] Sucrose + 3 uM ADMA, mean): 0.0612
- Kp at 10 min ([1]; Balb/c, pons, other: in situ brain perfusion, with unlabelled ADMA 10 µM, Arginine / Sucrose uptake, pons, mean, [3H] Arginine + [14C] Sucrose + 10 uM ADMA, mean): 0.0764
- Kp at 10 min ([1]; Balb/c, thalamus, other: in situ brain perfusion, with unlabelled ADMA 10 µM, Arginine / Sucrose uptake, thalamus, mean, [3H] Arginine + [14C] Sucrose + 10 uM ADMA, mean): 0.0352
- pellet: [14C] Sucrose [2]: 0.001001 and 0.002262 and 0.003661 and 0.002471 and 0.002325
- pineal gland: [14C] Sucrose ([3]; 30 mins, Balb/c ♂, 5ml/min, single mouse): 0.7704 and 1.659 and 1.346
- Kp at 30 min ([3]; caudate nucleus: [14C] Sucrose, 30 mins, Balb/c ♂, 5ml/min, mean): 0.0778
- Kp at 30 min ([3]; cerebellum: [14C] Sucrose, 30 mins, Balb/c ♂, 5ml/min, mean): 0.059
- Kp at 30 min ([3]; cerebellum: [14C] Sucrose, 30 mins, Balb/c ♂, 5ml/min, single mouse): 0.0613
- Kp at 30 min ([3]; pineal gland: [14C] Sucrose, 30 mins, Balb/c ♂, 5ml/min, mean): 1.05
- Kp at 30 min ([3]; pons: [14C] Sucrose, 30 mins, Balb/c ♂, 5ml/min, mean): 0.124
- Kp at 30 min ([3]; thalamus: [14C] Sucrose, 30 mins, Balb/c ♂, 5ml/min, mean): 0.0965
- Kp at 20 min ([3]; caudate nucleus): 0.0663
- Kp at 20 min ([3]; cerebellum): 0.0456
- Kp at 20 min ([3]; frontal cortex): 0.0797
- Kp at 20 min ([3]; hippocampus): 0.0477
- Kp at 20 min ([3]; hypothalamus): 0.0657
- Kp at 20 min ([3]; pineal gland): 0.524
- Kp at 20 min ([3]; pons): 0.118
- Kp at 20 min ([3]; thalamus): 0.0672
